# Counter-ions that a name gives are not always drawn.
# Target: T1, NADPH-oxidase (Homo sapiens, UniProt P04839)
# T1 construct: endogenous in cells; host or cells: human neutrophils isolated from buffy coat
# T1 sequence (P04839 1-570): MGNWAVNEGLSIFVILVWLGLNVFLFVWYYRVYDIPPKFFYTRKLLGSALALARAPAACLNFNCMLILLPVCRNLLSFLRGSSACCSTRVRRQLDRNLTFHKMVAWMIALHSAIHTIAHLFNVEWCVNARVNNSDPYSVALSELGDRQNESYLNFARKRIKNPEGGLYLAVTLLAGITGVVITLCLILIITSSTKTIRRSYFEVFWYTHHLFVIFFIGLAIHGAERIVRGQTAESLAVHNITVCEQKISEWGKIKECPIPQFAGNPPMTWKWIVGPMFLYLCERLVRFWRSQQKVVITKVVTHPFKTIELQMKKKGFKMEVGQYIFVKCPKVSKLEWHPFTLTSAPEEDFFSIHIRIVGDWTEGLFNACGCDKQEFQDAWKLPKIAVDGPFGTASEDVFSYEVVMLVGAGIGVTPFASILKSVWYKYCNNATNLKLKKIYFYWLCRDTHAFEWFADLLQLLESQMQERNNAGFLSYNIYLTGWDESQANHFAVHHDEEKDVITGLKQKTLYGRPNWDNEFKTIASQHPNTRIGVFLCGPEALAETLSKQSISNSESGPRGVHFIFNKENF
# Assay: Oxidase Inhibition Assay (PMA-stimulated superoxide-mediated reduction of Cytochrome c, whole cells)
# Assay type: cell-based
# Conditions: human neutrophils, PMA 0.5 μM, absorbance at 550 nm
# Protocol: Whole cells (human neutrophils) are incubated with a pro-inflammatory agonist phorbol myristate acetate (PMA) in the presence or absence of test compound to measure the superoxide-mediated reduction of Cytochrome c at 550 nm. Inhibition of the oxidase is determined by a decreased absorbance at 550 nm, in response to test compound, relative to the absorbance seen with a vehicle control.
# The buffy coat from one unit of blood is split evenly into four 50 mL tubes. To each tube 30 mL 3% Dextran (in 0.9% NaCl) is added and the tubes are inverted to mix. Tubes are allowed to sit undisturbed for 25 minutes. The resulting supernatant is recovered into four fresh tubes and centrifuged for 10 minutes at 600×g, 4° C. The supernatant is discarded and pellets are resuspended in 35 mL 0.9% saline. 10 mL Ficoll-Paque PLUS (Pharmacia Biotech AB) is layered beneath the cell suspension and centrifuged at 600×g for 40 minutes at room temperature. The supernatant is again discarded and tubes are tapped to loosen the resulting pellets. 20 mL 0.2% ice cold saline is added for 30 seconds followed by 20 mL 1.6% ice cold saline to lyse the remaining erythrocytes in the pellets. The pellets are centrifuged for 10 minutes at 600×g, 4° C., and the supernatant is discarded. The neutrophil pellets are resuspended in HBSS-glucose buffer (1 mg/mL), adding 2.5 mL to each tube for a total volume of 10 mL. The cell suspension is then counted on a hemocytometer.
# The cell suspension is diluted to a concentration of 5×10^6/mL in HBSS-glucose and treated with 1 μg/mL Cytochalasin B (5 mg/mL DMSO) for 10 minutes at 37° C. in a shaking water bath. Cells are diluted to 6×10^5 cells/mL in 92 μM Cytochrome C for a final concentration of 5×10^4 cells/well.
# The NADPH-oxidase assay is run on a Biomek 2000 workstation. The workstation adds 2.5 μL compound per well from source plates plus 12.5 μL per well 4 μM PMA (agonist). This volume is brought up to 100 μL total per well in the assay plates upon the addition of the prepared cells (85 μL). The final concentration of drug is 25 μM and PMA is 0.5 μM under these conditions.
# The QC curve is a dose-response curve (from about 31.25 nM to about 4000 nM) for competitive binding against a known oxidase inhibitor such as DPI (diphenylene iodonium chloride). The format used for each compound tested is as follows:
# The plates are incubated for 1 hour at 37° C. without CO2. The plates are then incubated at room temperature for 30 minutes and the absorbance is read at 550 nm.
row,IC50,SMILES
1,700 nM,"Cc1cc(C#Cc2ccc(Cl)cc2)ccc1OCC(C)NCc1ccc(CN)cc1 (stereo not drawn) [Compound 1, N-[2-[4-[(4-chlorophenyl)ethynyl]-2-methylphenoxy]-1-methylethyl]-1,4-benzenedimethanamine]"
2,2070 nM,"CCCNCc1ccc(CNCCOc2ccc(C#Cc3ccc(Cl)cc3)cc2)cc1 [Compound 2, N^1-[2-[4-[(4-chlorophenyl)ethynyl]phenoxy]ethyl]-N^4-propyl-1,4-benzenedimethanamine]"
3,1380 nM,"CCCNCc1ccc(CNCCOc2ccc(C#Cc3ccc(Cl)cc3)cc2C)cc1 [Compound 3, N^1-[2-[4-[(4-chlorophenyl)ethynyl]-2-methylphenoxy]ethyl]-N^4-propyl-1,4-benzenedimethanamine]"
4,1200 nM,"CC(C)NCc1ccc(CNCCOc2ccc(C#Cc3ccc(Cl)cc3)cc2)cc1 [Compound 4, N^1-[2-[4-[(4-chlorophenyl)ethynyl]phenoxy]ethyl]-N^4-(1-methylethyl)-1,4-benzenedimethanamine]"
5,2170 nM,"CC(C)CCNCc1ccc(CNCCOc2ccc(C#Cc3ccc(Cl)cc3)cc2)cc1 [Compound 5, N^1-[2-[4-[(4-chlorophenyl)ethynyl]phenoxy]ethyl]-N^4-(3-methylbutyl)-1,4-benzenedimethanamine]"
6,2280 nM,"Cc1cc(C#Cc2ccc(Cl)cc2)ccc1OCCNCc1ccc(CNCCC(C)C)cc1 [Compound 6, N^1-[2-[4-[(4-chlorophenyl)ethynyl]-2-methylphenoxy]ethyl]-N^4-(3-methylbutyl)-1,4-benzenedimethanamine]"
7,770 nM,"CN(C)CCCNCc1ccc(CNCCOc2ccc(C#Cc3ccc(Cl)cc3)cc2)cc1 [Compound 7, N^1-[2-[4-[(4-chlorophenyl)ethynyl]phenoxy]ethyl]-N^4-[3-(dimethylamino)propyl]-1,4-benzenedimethanamine]"
8,3240 nM,"Cc1cc(C#Cc2ccc(Cl)cc2)ccc1OCCNCc1ccc(CNCc2ccccc2)cc1 [Compound 8, N^1-[2-[4-[(4-chlorophenyl)ethynyl]-2-methylphenoxy]ethyl]-N^4-(phenylmethyl)-1,4-benzenedimethanamine]"
9,6660 nM,"CCCCCCCNCc1ccc(CNCCOc2ccc(C#Cc3ccc(Cl)cc3)cc2C)cc1 [Compound 9, N^1-[2-[4-[(4-chlorophenyl)ethynyl]-2-methylphenoxy]ethyl]-N^4-heptyl-1,4-benzenedimethanamine]"
10,8340 nM,"Cc1cc(C#Cc2ccc(Cl)cc2)ccc1OCCNCc1ccc(CNCCCc2ccccc2)cc1 [Compound 10, N^1-[2-[4-[(4-chlorophenyl)ethynyl]-2-methylphenoxy]ethyl]-N^4-(3-phenylpropyl)-1,4-benzenedimethanamine]"
11,11100 nM,"CCCCCCNCc1ccc(CNCCOc2ccc(C#Cc3ccc(Cl)cc3)cc2C)cc1 [Compound 12, N^1-[2-[4-[(4-chlorophenyl)ethynyl]-2-methylphenoxy]ethyl]-N^4-hexyl-1,4-benzenedimethanamine]"
12,2350 nM,"Cc1cc(C#Cc2ccc(Cl)cc2)ccc1OCCNCc1ccc(CNCCN2CCCC2)cc1 [Compound 14, N^1-[2-[4-[(4-chlorophenyl)ethynyl]-2-methylphenoxy]ethyl]-N^4-[2-(1-pyrrolidinyl)ethyl]-1,4-benzenedimethanamine]"
13,1610 nM,"Cc1cc(C#Cc2ccc(Cl)cc2)ccc1OCCNCc1ccc(CNCCCN2CCOCC2)cc1 [Compound 15, N^1-[2-[4-[(4-chlorophenyl)ethynyl]-2-methylphenoxy]ethyl]-N^4-[3-(4-morpholinyl)propyl]-1,4-benzenedimethanamine]"
14,2660 nM,"Cc1cc(C#Cc2ccc(Cl)cc2)ccc1OCCNCc1ccc(CNCCN2CCOCC2)cc1 [Compound 16, N^1-[2-[4-[(4-chlorophenyl)ethynyl]-2-methylphenoxy]ethyl]-N^4-[2-(4-morpholinyl)ethyl]-1,4-benzenedimethanamine]"
15,3010 nM,"Cc1cc(C#Cc2ccc(Cl)cc2)ccc1OCCNCc1ccc(CNCCCOC(=O)C2CCCCN2)cc1 (stereo not drawn) [Compound 18, 3-[[[4-[[[2-[4-[(4-chlorophenyl)ethynyl]-2-methylphenoxy]ethyl]amino]methyl]phenyl]methyl]amino]propyl ester 2-piperidinecarboxylic acid]"
16,3330 nM,"Cc1cc(C#Cc2ccc(Cl)cc2)ccc1OCCNCc1ccc(CNC(C)(C)C)cc1 [Compound 19, N^1-[2-[4-[(4-chlorophenyl)ethynyl]-2-methylphenoxy]ethyl]-N^4-(1,1-dimethylethyl)-1,4-benzenedimethanamine]"
17,1770 nM,"Cc1cc(C#Cc2ccc(Cl)cc2)ccc1OCCNCc1ccc(CN)cc1 [Compound 21, N-[2-[4-[(4-chlorophenyl)ethynyl]-2-methylphenoxy]ethyl]-1,4-benzenedimethanamine]"
18,850 nM,"CC(COc1ccc(C#Cc2ccccc2)cc1Cl)NCc1ccc(CN)cc1 (stereo not drawn) [Compound 22, N-[2-[2-chloro-4-(phenylethynyl)phenoxy]-1-methylethyl]-1,4-benzenedimethanamine]"
19,800 nM,"CCC(COc1ccc(C#Cc2ccc(Cl)cc2)cc1C)NCc1ccc(CN)cc1 (stereo not drawn) [Compound 23, N-[1-[[4-[(4-chlorophenyl)ethynyl]-2-methylphenoxy]methyl]propyl]-1,4-benzenedimethanamine]"
20,700 nM,"Cc1ccc(C#Cc2ccc(OCC(C)NCc3ccc(CN)cc3)c(Cl)c2)cc1 (stereo not drawn) [Compound 24, N-[2-[2-chloro-4-[(4-methylphenyl)ethynyl]phenoxy]-1-methylethyl]-1,4-benzenedimethanamine]"
21,700 nM,"CC(COc1ccc(C#Cc2ccc(Cl)cc2)cc1Cl)NCc1ccc(CN)cc1 (stereo not drawn) [Compound 25, N-[2-[2-chloro-4-[(4-chlorophenyl)ethynyl]phenoxy]-1-methylethyl]-1,4-benzenedimethanamine]"
22,1050 nM,"CC(COc1ccc(C#Cc2ccc(F)cc2)cc1Cl)NCc1ccc(CN)cc1 (stereo not drawn) [Compound 26, N-[2-[2-chloro-4-[(4-fluorophenyl)ethynyl]phenoxy]-1-methylethyl]-1,4-benzenedimethanamine]"

# Tested on: not given
# Assay: not given
# Conditions: not given
row,melting point,SMILES
1,> 300 °C,"Cc1cc(C#Cc2ccc(Cl)cc2)ccc1OCC(C)NCc1ccc(CN)cc1 (stereo not drawn) (as salt: HCl) [Compound 1, N-[2-[4-[(4-chlorophenyl)ethynyl]-2-methylphenoxy]-1-methylethyl]-1,4-benzenedimethanamine]"
2,261.5 to 264 °C,"CCC(COc1ccc(C#Cc2ccc(Cl)cc2)cc1C)NCc1ccc(CN)cc1 (stereo not drawn) (as salt: HCl) [Compound 23, N-[1-[[4-[(4-chlorophenyl)ethynyl]-2-methylphenoxy]methyl]propyl]-1,4-benzenedimethanamine]"
3,> 300 °C,"Cc1ccc(C#Cc2ccc(OCC(C)NCc3ccc(CN)cc3)c(Cl)c2)cc1 (stereo not drawn) (as salt: HCl) [Compound 24, N-[2-[2-chloro-4-[(4-methylphenyl)ethynyl]phenoxy]-1-methylethyl]-1,4-benzenedimethanamine]"
4,> 300 °C,"CC(COc1ccc(C#Cc2ccc(Cl)cc2)cc1Cl)NCc1ccc(CN)cc1 (stereo not drawn) (as salt: HCl) [Compound 25, N-[2-[2-chloro-4-[(4-chlorophenyl)ethynyl]phenoxy]-1-methylethyl]-1,4-benzenedimethanamine]"
5,> 300 °C,"CC(COc1ccc(C#Cc2ccc(F)cc2)cc1Cl)NCc1ccc(CN)cc1 (stereo not drawn) (as salt: HCl) [Compound 26, N-[2-[2-chloro-4-[(4-fluorophenyl)ethynyl]phenoxy]-1-methylethyl]-1,4-benzenedimethanamine]"

# — US7476672B2, “Acetylenic compounds useful in treating inflammatory disorders” (Janssen Pharmaceutica N.V., priority 2002, dated 2009)
